The record followed here is ChEMBL document CHEMBL3739319, “Identification of a novel class of autotaxin inhibitors through cross-screening” (Medchemcomm, 2015).

The structures appear in SMILES notation. In brackets after ≈: the same amount, converted by molar mass. Activity calls are given as the source filed them. No cut-off for these calls is given here.

Data set [1] deals with T1, Autotaxin (Homo sapiens, UniProt Q13822). In words: Inhibition of ATX (unknown origin) using bis-(p-nitrophenyl)phosphate as substrate.
Data set [2] is described as follows: Lipophilicity, log D of compound at pH 7.4 by RP-HPLC analysis. The class given is physicochemical. The note with it: buffer.
Data set [3] can be described thus: Permeability of compound across artificial membrane after 3 hrs by LC-MS analysis. It counts as ADME. Conditions: PAMPA; read-out: permeability. On the technique in general: PAMPA measures passive passage across an artificial lipid membrane.
The nature of data set [4]: Kinetic solubility of compound in phosphate buffer at pH 7.4 for 1 hr. The class given is physicochemical. The note with it: read-out: Kinetic_solubility.
A further data set relates to PC-3. The data set can be described thus: Inhibition of LPA-induced cell proliferation of human PC3 cells at 10 uM after 18 hrs by [3H]-thymidine incorporation assay. It counts as functional, cell-based.
The test system of another data set is A2780. In words: Cytotoxicity against human A2780 cells at 30 uM after 42 hrs by alamar blue assay. It counts as cell-based. Conditions: a2780, 42 h. (Resazurin is reduced to fluorescent resorufin, in cell work by metabolically active cells.)
Data set [5] addresses Lysophosphatidic acid receptor 1 (Homo sapiens) (UniProt Q92633). The data set can be described thus: Antagonist activity at LPA1 receptor (unknown origin) expressed in CHO-K1 cells assessed as LPA-induced receptor activity measured as remaining receptor activity at 10 uM compound incubated for 1 hr followed by addition of LPA for 3 hrs by luminometry. The class given is cell-based.

Data set [6] has as its target T1, Autotaxin. In words: Inhibition of ATX (unknown origin) using bis-(p-nitrophenyl)phosphate as substrate at 30 uM.

Lysophosphatidic acid receptor 1 (Homo sapiens), sequence (Q92633 whole entry): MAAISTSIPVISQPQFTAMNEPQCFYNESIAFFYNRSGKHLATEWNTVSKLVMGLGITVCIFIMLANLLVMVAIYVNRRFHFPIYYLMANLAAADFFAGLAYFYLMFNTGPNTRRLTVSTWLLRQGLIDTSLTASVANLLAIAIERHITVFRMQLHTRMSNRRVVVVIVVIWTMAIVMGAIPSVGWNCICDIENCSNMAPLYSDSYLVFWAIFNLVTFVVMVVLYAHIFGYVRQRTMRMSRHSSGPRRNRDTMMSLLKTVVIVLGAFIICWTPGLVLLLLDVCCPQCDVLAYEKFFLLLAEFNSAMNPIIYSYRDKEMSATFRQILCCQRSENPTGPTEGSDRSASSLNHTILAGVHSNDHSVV

A word on the Ki: it is the dissociation constant of the complex between target and ligand, obtained from inhibition or displacement. High values mean lower affinity, low ones higher affinity. In general, logD refers to lipophilicity at a set pH, counting ionised and neutral species. A higher logD goes with higher lipophilicity. `O=C(O)Cc1ccc(-c2ccc(CN3CC(=O)N(c4ccccc4)C3=O)cc2)cc1`: the affinity at Autotaxin [1], expressed as Ki, was 3.6 µM. For the same compound, the logD in data set [2] was 2.18. In addition, in data set [3], the Papp at 3 h was 0.3 ×10⁻⁶ cm/s. Moreover, the solubility kinetic at 1 h in data set [4] was determined as 174 µg/mL (≈ 436 µM).

In turn, `CC(C)N1C(=O)CN(Cc2ccc(Br)cn2)C1=O` yielded an inhibition constant Ki on Autotaxin [1] of under 5 µM.

With `COC(=O)CNCc1ccc(Br)cc1`, the inhibition constant Ki on Autotaxin [1] is under 5 µM.

One may read the inhibition as how much of the control response was suppressed. `O=C(O)Cc1ccc(-c2ccc(N(C(=O)OCc3ccccc3)C3CCCCC3)cc2)cc1`: the inhibition entry with PC-3 was “Active”. On Autotaxin [1], this compound registered a Ki of 2 µM. The same compound displayed a logD in data set [2] of 4.92. Besides, the Papp at 3 h in data set [3] was determined as 15 ×10⁻⁶ cm/s. Further, the Activity result in the data set on A2780 was “Non-toxic”. Moreover, the solubility kinetic at 1 h in data set [4] worked out at 189 µg/mL (≈ 426 µM).

For `O=C(O)Cc1ccccc1-c1cccc(NC(=O)OCc2ccccc2)c1`, on Autotaxin [1], the affinity corresponds to a Ki of 4 µM. Also, the logD in data set [2] was found to be 3.06. Further, in data set [3], the Papp at 3 h is 14 ×10⁻⁶ cm/s. For the same compound, the solubility kinetic at 1 h in data set [4] stood at 287 µg/mL (≈ 794 µM).

As to `O=C(Cc1ccc(-c2ccc3cc[nH]c3c2)cc1)OCc1ccccc1`, the Ki on Autotaxin [1] was over 30 µM. In addition, the log distribution coefficient (logD) in data set [2] was 7.43. In addition, the Papp at 3 h in data set [3] came to 51 ×10⁻⁶ cm/s. Besides, the solubility kinetic at 1 h in data set [4] was determined as 110 µg/mL (≈ 322 µM).

Take `O=C1CN(Cc2ccc(-c3ccc(C4(C(=O)O)CC4)cc3)cc2)C(=O)N1c1ccccc1`: the Ki on Autotaxin [1] is over 30 µM. Further, the pH-dependent lipophilicity (logD) in data set [2] turned out to be 1.5. The Papp at 3 h in data set [3] came out at 1.6 ×10⁻⁶ cm/s. Moreover, the solubility kinetic at 1 h in data set [4] turned out to be 195 µg/mL (≈ 457 µM).

As to `Cc1noc(-c2ccc(CSCCC(=O)O)cc2)c1NC(=O)OC(C)c1ccccc1Cl` (stereo unspecified), the Activity in data set [5] was 16%. The inhibition on Autotaxin [6] was under 20%.

With `O=C1CN(Cc2ccc(-c3ccccc3)cc2)C(=O)N1c1ccccc1`, the inhibition result in the data set on PC-3 is “Active”. In addition, on Autotaxin [1], affinity was put at a Ki of 1.3 µM. This compound came in with a logD in data set [2] of 6.24. Further, in data set [3], the Papp at 3 h was determined as 54 ×10⁻⁶ cm/s. The Activity result with A2780 was “Non-toxic”. Further, the solubility kinetic at 1 h in data set [4] came to 7.5 µg/mL (≈ 21.9 µM).

Regarding `O=C(Nc1cccc(-c2ccccc2)c1)OCc1ccccc1`, the inhibitory constant (Ki) at Autotaxin [1] is over 30 µM. In data set [2], the log distribution coefficient (logD) stood at 7.52. Besides, the Papp at 3 h in data set [3] is 45 ×10⁻⁶ cm/s. In addition, the solubility kinetic at 1 h in data set [4] amounted to 5 µg/mL (≈ 16.5 µM).

For the compound `O=C(O)Cc1ccc(-c2ccc(CN3CC(=O)N(C4CCCCC4)C3=O)cc2)cc1`, the inhibition constant (Ki) at Autotaxin [1] is 1.8 µM. The pH-dependent lipophilicity (logD) in data set [2] turned out to be 1.12. For the same compound, the Papp at 3 h in data set [3] was 2.2 ×10⁻⁶ cm/s. The solubility kinetic at 1 h in data set [4] was 186 µg/mL (≈ 456 µM).

On Autotaxin [1], `COC(=O)CNCc1ccc(Br)cn1` displayed a Ki of under 5 µM.

Turning to `O=C(O)Cc1ccc(-c2cccc(NC(=O)OCc3ccccc3)c2)cc1`, in the data set with PC-3, the inhibition entry is “Active”. This compound also returned an inhibition constant (Ki) on Autotaxin [1] of 4.5 µM. This compound gave a pH-dependent lipophilicity (logD) in data set [2] of 3.19. Besides, the Papp at 3 h in data set [3] is 7.3 ×10⁻⁶ cm/s. Further, in the data set with A2780, the Activity entry was “Non-toxic”. For the same compound, in data set [4], the solubility kinetic at 1 h stood at 198 µg/mL (≈ 548 µM).

At Autotaxin [1], `O=C1CN(Cc2ccc(Br)cc2)C(=O)N1c1ccccc1` returned an inhibition constant (Ki) of under 5 µM.

On Autotaxin [1], `CC(C)N1C(=O)CN(Cc2ccc(-c3ccc(CC(=O)O)cc3)cc2)C1=O` had an inhibitory constant (Ki) of 1.2 µM. This compound showed a logD in data set [2] of 1.1. In addition, the Papp at 3 h in data set [3] was determined as 0.3 ×10⁻⁶ cm/s. Besides, in data set [4], the solubility kinetic at 1 h is 190 µg/mL (≈ 519 µM).

As to `O=C(Cc1ccc(-c2ccc3[nH]ccc3c2)cc1)OCc1ccccc1`, the inhibition constant Ki at Autotaxin [1] turned out to be 1.1 µM. The logD in data set [2] was 7.25. The Papp at 3 h in data set [3] came to 44.5 ×10⁻⁶ cm/s. Further, the solubility kinetic at 1 h in data set [4] is 70 µg/mL (≈ 205 µM).

For `O=C(O)Cc1ccc(-c2ccc(N(C(=O)OCc3ccccc3)C3CCOCC3)cc2)cc1`, the inhibition constant Ki on Autotaxin [1] was over 30 µM. This compound also came in with a logD in data set [2] of 3.13. Also, the Papp at 3 h in data set [3] came out at 2.3 ×10⁻⁶ cm/s. The solubility kinetic at 1 h in data set [4] amounted to 212 µg/mL (≈ 476 µM).

In turn, `O=C1CN(Cc2ccc(Br)cc2)C(=O)N1C1CCCCC1` gave a Ki at Autotaxin [1] of under 5 µM.

As to `Cc1noc(-c2ccc(-c3ccc(CC(=O)O)cc3)cc2)c1NC(=O)O[C@H](C)c1ccccc1`, in data set [5], the Activity came to 11%. The compound further displayed an inhibition on Autotaxin [6] of under 20%.

Take `Brc1ccc(NC2CCOCC2)cc1`: the Ki on Autotaxin [1] is under 5 µM.

For `O=C(O)Cc1cccc(-c2cccc(NC(=O)OCc3ccccc3)c2)c1`, at Autotaxin [1], the Ki came out at 3.5 µM. For the same compound, the logD in data set [2] was 3.1. In addition, in data set [3], the Papp at 3 h stood at 6.4 ×10⁻⁶ cm/s. Further, in data set [4], the solubility kinetic at 1 h is 221 µg/mL (≈ 612 µM).

`CC(C)N1C(=O)CN(Cc2ccc(-c3ccc(CC(=O)O)cc3)cn2)C1=O`: the affinity at Autotaxin [1], expressed as Ki, was 4 µM. Further, in data set [2], the logD is -1.38. Further, the Papp at 3 h in data set [3] is under 1 ×10⁻⁶ cm/s. In data set [4], the solubility kinetic at 1 h was 108 µg/mL (≈ 294 µM).

As to `O=C(O)Cc1ccc(-c2ccc(CN3CC(=O)N(C4CCCCC4)C3=O)nc2)cc1`, the Ki at Autotaxin [1] stood at 3.9 µM. The same compound gave a log distribution coefficient (logD) in data set [2] of -0.35. For the same compound, the Papp at 3 h in data set [3] was under 3 ×10⁻⁶ cm/s. Besides, the solubility kinetic at 1 h in data set [4] came to 93 µg/mL (≈ 228 µM).
